Measured values reported in patent publication US12350306B2, “Modifying taste and sensory irritation of smokeless tobacco and non-tobacco products” (Altria Client Services LLC, priority 2013, dated 2025).

What was measured:
[1] = experimental animal models; cited from earlier work
[2] = biological target: TRPV1 channel (Homo sapiens, UniProt Q8NER1); settings: cited from earlier work
[3] = Perceived bitterness of caffeinated water formulations; assay type: in vivo; settings: caffeinated water formulation
Description: Liquid formulations were prepared by combining caffeinated water or commercially available grapefruit juice with Cremophor® alone, citric acid alone or the combination of Cremophor® and citric acid. […] Because grapefruit juice naturally contains citric acid, citric acid was not added to the grapefruit juice formulations.

TRPV1 channel, sequence (Q8NER1 whole entry): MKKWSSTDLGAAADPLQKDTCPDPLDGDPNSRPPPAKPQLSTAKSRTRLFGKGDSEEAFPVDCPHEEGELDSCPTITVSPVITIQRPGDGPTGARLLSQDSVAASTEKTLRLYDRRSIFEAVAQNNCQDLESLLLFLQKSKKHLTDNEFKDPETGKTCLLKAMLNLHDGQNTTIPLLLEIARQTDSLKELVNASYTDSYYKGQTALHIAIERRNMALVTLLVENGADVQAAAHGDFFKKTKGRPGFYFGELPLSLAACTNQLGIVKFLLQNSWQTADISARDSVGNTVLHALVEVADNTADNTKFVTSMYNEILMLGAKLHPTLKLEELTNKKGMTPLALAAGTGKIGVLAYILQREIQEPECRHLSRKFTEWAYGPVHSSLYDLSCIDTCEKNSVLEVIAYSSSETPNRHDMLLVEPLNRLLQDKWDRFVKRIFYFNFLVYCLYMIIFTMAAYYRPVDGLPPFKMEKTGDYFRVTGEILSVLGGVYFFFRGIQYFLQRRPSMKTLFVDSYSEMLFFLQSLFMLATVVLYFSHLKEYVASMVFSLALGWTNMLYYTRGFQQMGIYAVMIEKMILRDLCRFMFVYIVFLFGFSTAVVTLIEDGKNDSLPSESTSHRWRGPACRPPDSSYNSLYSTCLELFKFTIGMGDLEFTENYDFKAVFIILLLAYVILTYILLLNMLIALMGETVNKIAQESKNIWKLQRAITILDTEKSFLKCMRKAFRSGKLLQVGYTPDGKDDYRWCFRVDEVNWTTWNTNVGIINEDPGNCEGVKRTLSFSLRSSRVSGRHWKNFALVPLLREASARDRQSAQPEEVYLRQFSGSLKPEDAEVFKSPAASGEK

Structure (SMILES) | anti-inflammatory effects [1] | TRPV1 channel desensitization [2] | perceived bitterness [3]
CCCCCC[C@@H](O)C/C=C/CCCCCCCC(=O)O (stereo in doubt) [Ricinoleic acid, 12-hydroxy-9-cis-octadecenoic acid] | anti-inflammatory effects | can desensitize the TRPV1 channel | –
O=C(O)CC(O)(CC(=O)O)C(=O)O [citric acid] | – | – | little noticeable effect
